Assays:
[1] = tested on: SKOV-3; assay: Cell viability (ViaLight Plus), SKOV-3; type: cell-based, human; details: Gal-3C single agent, escalating concentrations (0, 2, 10, 20 μg/mL), 48 hours, on average
Description: (§1) Cell viability. Cell proliferation was assessed with a ViaLight Plus Cell Proliferation and Cytotoxicity BioAssay Kit (Lonza, Walkersville, Md., USA) according to the directions of the manufacturer. In brief, OC cells were seeded in 100 μL RPMI-1640 with 10% heat-inactivated FBS in 96-well plates (8×10^3/well). Each drugs/drug combination was tested in triplicate. Luminescence was measured with a 1-s integrated setting in a Berthold luminometer.
(§2) Administration of Gal-3C reduced OC cell viability when used as a single agent and improved the effects of paclitaxel. OC cells were treated with escalating concentrations of Gal-3C (0, 2, 10, and 20 μg/mL) for 48 hours, then viability was measure as described in methods, and expressed as percentage of control cells (treated with equal amounts of drug vehicle). […] On average, viability was reduced by 25% in SKOV-3, 50% in ID8, 29% in Pt1 and 57% in Pt2 cells. Then, in a separate set of experiments, OC cells were treated for 48 hours with 10 μg/mL Gal-3C, 8 nM paclitaxel, or combined 10 μg/mL Gal-3C+8 nM paclitaxel.

[2] = tested on: ID8; assay: Cell viability (ViaLight Plus), ID8; type: cell-based, murine; details: Gal-3C single agent, escalating concentrations (0, 2, 10, 20 μg/mL), 48 hours, on average
Description: as §1, §2

[3] = tested on: Pt1; assay: Cell viability (ViaLight Plus), primary OC cells Pt1; type: cell-based, human; details: Gal-3C single agent, escalating concentrations (0, 2, 10, 20 μg/mL), 48 hours, on average
Description: (§3) Cells. The OC cell lines used in this study were SKOV-3 and ID8 (American Type Culture Collection, Manassas, Va., USA), while primary epithelial OC cells from two patients were obtained with approval from the Texas Tech University HSC IRB (L-Micro Study, IRB NUMBER: L04-095), and the patients' written informed consent. All OC cells were cultured in RPMI-1640 medium supplemented with 10% fetal bovine serum (FBS, Thermo Scientific, Rockford, Ill., USA) in 5% CO2 atmosphere at 37° C. Human Umbilical Vein Endothelial Cells (HUVEC, American Type Culture Collection) were maintained in EGM-2 medium supplemented with endothelial cells growth factors (Lonza, Houston, Tex., USA) and were used within 10 passages.
(§4) Cell viability. Cell proliferation was assessed with a ViaLight Plus Cell Proliferation and Cytotoxicity BioAssay Kit (Lonza, Walkersville, Md., USA) according to the directions of the manufacturer. […] Luminescence was measured with a 1-s integrated setting in a Berthold luminometer.
(§5) Administration of Gal-3C reduced OC cell viability when used as a single agent and improved the effects of paclitaxel. OC cells were treated with escalating concentrations of Gal-3C (0, 2, 10, and 20 μg/mL) for 48 hours, then viability was measure as described in methods, and expressed as percentage of control cells (treated with equal amounts of drug vehicle). […]

[4] = tested on: Pt2; assay: Cell viability (ViaLight Plus), primary OC cells Pt2; type: cell-based, human; details: Gal-3C single agent, escalating concentrations (0, 2, 10, 20 μg/mL), 48 hours, on average
Description: as §3, §4, §5

[5] = tested on: OC cells (SKOV-3, ID8, Pt1, Pt2); assay: Cell viability, statements for all OC cells tested; type: cell-based; details: 48 hours
Description: as §1, §2

[6] = tested on: Akt/NF-κB pathway; assay: Western blotting of Akt/NF-κB pathway activation in OC cells; type: cell-based; details: 48 hours, Western blot; for levels of phosphorylated, active NF-κB (P-p65) / phospho-Akt (P-Akt) levels: 10 μg/mL Gal-3C, 8 nM paclitaxel or combined
Description: Western blotting. Cells were harvested and washed twice with PBS, then lysed (25), and resolved on 12% Bis-Tris (Bis(2-hydroxyethyl)-amino-tris(hydroxymethyl)-methane) poly-acrylamide gel (Invitrogen) and then electrotransferred onto 0.2 μm nitrocellulose membrane. After rinsing in PBS-Tween, the blot was incubated in protein-free blocking buffer (Pierce/Thermo) at 4° C. overnight, then incubated with the indicated primary antibodies (Cell Signaling Technology, Inc., Danvers, Mass. USA) diluted in blocking buffer for 2 hours at RT. After washing 5 times with PBS-Tween, the blot was incubated with matched horseradish peroxidase-coupled secondary antibodies, and developed with the ECL Western blotting Detection System from Perkin-Elmer Life Sciences (Boston, Mass., USA).
Gal-3C reversed the effect of paclitaxel on NF-κB activation by reducing the phosphorylation of Akt. OC cells treated for 48 hours with 10 μg/mL Gal-3C, 8 nM paclitaxel, or combined treatments as described above, then protein extracts were analyzed by Western blotting. […] Increased or decreased levels of p65 phosphorylation (P-p65) were in accordance with higher or lower levels (respectively) of IKB and IKKα/β phosphorylation, as expected. […] To rule out the possibility that alterations in the phosphorylation of p-65, IKB, IKK, or Akt were the results of modulations in the expression levels, total p-65, IKB, IKK, or Akt (phosphorylated and not-phosphorylated forms) were also examined (FIGS. 3A and 3B).

[7] = tested on: OC cells; assay: Matrigel invasion assay; type: cell-based; details: 48-hour treatment; 10 μg/mL Gal-3C, 8 nM paclitaxel or combined; compared with controls
Description: Invasion assay. OC invasion potential was measured as described (25), using Transwell™ polycarbonate inserts (5-μm pore size).
Gal-3C reduced OC invasion and migration alone and in combination with paclitaxel. After 48-hour treatment with 10 μg/mL Gal-3C, 8 nM paclitaxel, or combined drugs, OC cells were tested for in vitro invasivity and motility abilities as described in methods.

[8] = tested on: OC cells; assay: Transwell migration assay of OC cells; type: cell-based; details: 48-hour treatment; 10 μg/mL Gal-3C, 8 nM paclitaxel or combined; compared with controls
Description: Migration assays. 4×10^5 cells were plated in 100 μL serum-free culture medium (supplemented with drugs or vehicle) in the top chambers of 24-well Transwell™ polycarbonate inserts (Corning Costar, NY, USA) with 8-μm pores. Complete culture medium (600 μL) was added to the bottom chamber. After incubation for 4 hours, cells on lower side of the filter were fixed, stained and counted as described (25).
After 48-hour treatment with 10 μg/mL Gal-3C, 8 nM paclitaxel, or combined drugs, OC cells were tested for in vitro invasivity and motility abilities as described in methods.

[9] = tested on: HUVEC cells; assay: Vascular endothelial cell (HUVEC) Transwell migration assay with OC conditioned medium; type: cell-based, human; details: for HUVEC migration induced by conditioned media of treated OC cells: conditioned media from SKOV-3 cells treated 48 hours, 10 μg/mL Gal-3C or 8 nM paclitaxel, compared with controls; for HUVEC chemotaxis, direct effect of residual drugs: control OC-conditioned medium supplemented with 2 μg/mL Gal-3C, 1.6 nM paclitaxel, or combined, results not shown
Description: The experiments were run in triplicate and the results are expressed as the mean number of migrated cells in the presence of different stimuli.
After 48-hour treatments (10 μg/mL Gal-3C, 8 nM paclitaxel, or combined drugs), the conditioned media form SKOV-3 cells was harvested and tested for its ability to induce migration of HUVEC cells in a Transwell assay. […] To test if residual drugs in the conditioned media could inhibit HUVEC migration, a migration assay was performed in the presence of control OC-conditioned medium supplemented with 20% of drug amounts (2 μg/mL Gal-3C, 1.6 nM paclitaxel, and combined drugs).

[10] = tested on: HUVEC cells; assay: In vitro tubule formation (angiogenesis) assay with OC conditioned media; type: cell-based, human; details: for formation of vessel-like structures by HUVEC cells: conditioned media (20% V/V) of OC cells pre-treated 48 hours, 10 μg/mL Gal-3C, 8 nM paclitaxel or combination; for average number of branching points: conditioned media of 48-h treated OC cells, all tested OC cells, compared with vehicle-treated cells; for tubule formation, direct effect of drugs: conditioned media of untreated OC cells (20% V/V) supplemented with 10 μg/mL Gal-3C, 8 nM paclitaxel or both, results not shown
Description: Tubule formation assay. A capillary tubule formation assay was performed as previously described (25). Briefly, growth factor-reduced Matrigel™ (50 μL/well; Becton Dickinson) was added with 30 ng/mL recombinant basic fibroblastic growth factor (bFGF; R&D Systems) and incubated for 1 hour at 37° C. 2-h serum-starved HUVEC cells (5,000), were resuspended in 200 μL serum-free EGM-2 medium (Lonza) supplemented with 20% V/V conditioned medium from differently treated OC cells (obtained after 48-h treatment of OC cells with 10 μg/mL Gal-3C, 8 nM paclitaxel, the combination of both, or 0.6% V/V PBS as drug vehicle). HUVEC were then seeded onto the Matrigel™ and incubated at 37° C. and 5% CO2 for 16 hours to allow tubule formation. The assays were run in triplicate, and microphotographs were taken using 40× and 20× objectives with an inverted X71 microscope (Olympus). Pictures were also used to count the number of branching points originated by HUVEC cells, as a measure of the degree of angiogenesis, by the Wimasis WimTube software (Wimasis GmbH, Munich, Germany). Statistically significant differences in the number of branching points were analyzed by the Kruskal-Wallis test followed by a Dunns post-test, to compare all the treatment groups with each other.
Gal-3C blocked OC cell angiogenic potential and αvβ3 integrin clustering. To study the effects of Gal-3C on OC cells ability to induce the formation of new vessels, an in vitro tubule formation assay was carried out using HUVEC cells stimulated with the conditioned media (20% V/V) of OC cells pre-treated for 48 hours with 10 μg/mL Gal-3C, 8 nM paclitaxel, or a combination of both treatments. […] The amount of branching points was also calculated through the Wimasis WimTube software, as described hereinabove. […] A parallel set of experiments were performed using a mixture consisting of the 48-hour conditioned media of each untreated OC cell line (20% V/V) supplemented with 10 μg/mL Gal-3C, 8 nM paclitaxel, or 10 μg/mL Gal-3C+8 nM paclitaxel. […] This outcome on in vitro angiogenesis was correlated with an evident reduction in the clusters of αvβ3 integrins (FIG. 7).

[11] = tested on: αvβ3 integrin clusters in HUVEC cells; assay: αvβ3 integrin clustering assay; type: cell-based, human; details: conditioned medium of OC cells pre-treated 48 h; 10 μg/mL Gal-3C, 8 nM paclitaxel or combined
Description: αvβ3 integrin clustering assay. HUVEC cells were cultured in 8-chamber slides coated with 10 μg/mL fibronectin (10^4 cells/chamber). Cells were incubated with conditioned medium of SKOV-3 cells (obtained as described for the tubule formation assay) for 20 minutes to allow integrin clustering, then fixed with 4% WN buffered (pH=7.5) paraformaldehyde in PBS (10 minutes at 37° C.). Then, cells were incubated with 10 μg/mL anti-integrin αvβ3 antibody (R&D Systems, 1:200 dilution in PBS) for 1 hour at RT, followed by two washing steps in PBS (5 minutes each) prior to the addition of FITC-anti-mouse IgG (1:1000 dilution in PBS) for 1 hour at RT. Microphotographs of randomly selected fields were acquired at 60× magnification by confocal microscopy (Leica TCS-SL Confocal Spectral Microscope System, Leica Microsystems, Buffalo Grove, Ill., USA).
Gal-3C blocked OC cell angiogenic potential and αvβ3 integrin clustering. To study the effects of Gal-3C on OC cells ability to induce the formation of new vessels, an in vitro tubule formation assay was carried out using HUVEC cells stimulated with the conditioned media (20% V/V) of OC cells pre-treated for 48 hours with 10 μg/mL Gal-3C, 8 nM paclitaxel, or a combination of both treatments. […] The amount of branching points was also calculated through the Wimasis WimTube software, as described hereinabove. […]

[12] = compared with available standard treatments; cited from earlier work

Compound	viability reduced (percentage of control cells) [1]	viability reduced (percentage of control cells) [2]	viability reduced (percentage of control cells) [3]	viability reduced (percentage of control cells) [4]	concentration from which cell viability is significantly reduced ([5]; 0, 2, 10, 20 μg/mL tested)	cell viability, comparison between treatments ([5]; 10 μg/mL Gal-3C, 8 nM paclitaxel or combined)	phosphorylated IKKB, IKK levels ([6]; 10 μg/mL Gal-3C alone, compared with controls)	levels of phosphorylated, active NF-κB (P-p65) [6]	phospho-Akt (P-Akt) levels [6]	OC cell invasion [7]	OC cell migration [8]	HUVEC migration induced by conditioned media of treated OC cells [9]	HUVEC chemotaxis, direct effect of residual drugs [9]	formation of vessel-like structures by HUVEC cells [10]	average number of branching points [10]	tubule formation, direct effect of drugs [10]	αvβ3 integrin clusters in HUVEC cells [11]	toxicity profile [12]
Gal-3C: truncated, dominant-negative form of Galectin-3; last 143 carboxy-terminal amino acid residues of human Galectin-3 (SEQ ID NO. 4)	25%	50%	29%	57%	≥ 10 µg/mL	more effective in reducing cell viability compared with paclitaxel in all cell lines except SKOV-3	reduction	reduction	reduction	significantly reduced	significantly reduced	significant effect	did not significantly affect HUVEC chemotaxis	significantly reduce	significantly reduced	unable to significantly affect tubule formation	completely abrogated	very low toxicity profile
CC(=O)O[C@H]1C(=O)[C@@]2(C)[C@H]([C@H](OC(=O)c3ccccc3)[C@]3(O)C[C@H](OC(=O)[C@H](O)[C@@H](NC(=O)c4ccccc4)c4ccccc4)C(C)=C1C3(C)C)[C@]1(OC(C)=O)CO[C@@H]1C[C@@H]2O [paclitaxel, Paclitaxel, reference compound]								increased	increased			unable to reduce the production of HUVEC chemotactic factors	did not significantly affect HUVEC chemotaxis	significantly reduce	significantly reduced	unable to significantly affect tubule formation	still preserved the ability to induce αvβ3 integrin cluster in HUVEC cells (even if at a lower extent compared with control)	

From patent US20150157691A1, “Galectin-3 to Treat Ovarian Cancer” (Texas Tech University System, priority 2013, published 2015)
